Legend:
[1] = biological target: T1, AChE (from the electric eel) (Electrophorus electricus, UniProt O42275); test: biochemical
T1 construct: purchased Sigma Aldrich
Description: (§3) The capacity of the novel cyclopentaquinoline hybrids to inhibit AChE (from the electric eel) and BuChE (from equine serum) were determined by the modified colorimetric Ellman’s method[38]^,[39]. Both enzymes, DTNB – Ellman’s reagent (5,5′-dithiobis-(2-nitrobenzoic acid)), acetyltiocholine iodide (ATCI) were obtained from Sigma Aldrich. AChE and BuChE samples in phosphate buffer (PBS) pH 8.0 were incubated in 96-well plates in the presence of the substrate (ATCI), 76 µl of DTNB and the tested compound at various concentration at room temperature for 10 min (AChE) or eight minutes (BuChE).

SHSY5Y cell = test: Toxicity towards SH-SY5Y cells (MTT); type: cell-based; settings: 0.1–10 µM
Description: The SH-SY5Y (human neuroblastoma) (European Collection of Cell Culture) was chosen to determine the neuroprotective properties of the novel compounds. The Ham’s F12:EMEM (1:1) medium was used (Sigma Aldrich), comprising 15% Foetal Bovine Serum (Biowest), 2 mM Glutamine (Sigma Aldrich), 100 units/ml penicillin and […] (Biological Industries) and 1% Non-Essential Amino Acids (Biological Industries).
SH-SY5Y cells were seeded at a density of 5 × 10^3 cells/well in 96-well plates. The cells were cultured for 24 h (37 °C, 5% CO2). After 24 h of incubation, the medium was removed and cells were exposed to 100 µl of the compound at a range of concentrations, or of culture medium alone (blank control). After incubation, the medium was removed, washed with PBS and 50 µl of the MTT solution was added. The plates were then incubated for two hours (37 °C, 5% CO2). The MTT solution was then removed from the wells and 100 µl of DMSO was added. The plates were incubated for 10 min at room temperature and then 5 µl of Sorensen Buffer was added. The plates were swayed and the absorbance measured in a microplate reader (Synergy H1, BioTek, Winooski, VT, USA) at a wavelength of 570 nm. Cell viability was expressed as a percentage of control values (blank control). The experiments were done in triplicate.

SH-SY5Y cells [2] = test: Neuroprotection against H2O2-induced oxidative stress, MTT test; type: cell-based, human; settings: H2O2 100 µM
[3] = In vivo acute oral toxicity (OECD 423); set-up: species or system mice; settings: female, Balb/c, mouse, in vivo, OECD 423, read-out: LD50 cut-off
Description: (§1) Compound 3e was administered by the oral route (by gavage) in one of four fixed doses (5, 50, 300, 2000 mg/kg) for a given stage of the study. The results allow to classify the compound according to the Globally Harmonised Classification System for Chemical Substances and Mixtures (GHS). In addition, the LD50 cut-off values was determined. According to the figure from the OECD 423 guidelines, a maximum of six test stages can be performed. Three animals (female mice, Balb/c) took part in each stage, and the number of stages depends on the mortality of the animals, which is the final test parameter. The research was carried out on the basis of the agreement of the Local Ethical Committee for animal testing in Łódź No. 56/115 ŁB/2018.
(§2) After quarantine, handling, weighing and labelling, the compound 3e was given in a dose of 300 mg/kg (300 mg/kg is a dose used in the absence of information on the toxicity of the test substance. If 2–3 animals die after using this dose, compound will be given at a lower dose − 50 mg/kg. Last dose 5 mg/kg is used if after a dose of 50 mg/kg also 2–3 animals die. If no death occurs, or death of one animal, the compound is again administered to the stomach in the same dose 300 mg/kg, and […], a dose of 2000 mg/kg of body weight is used). The presence of a substance-dependent mortality of animals exposed at one stage determines the performance of the next stage of the study. After each dose, animals are observed for 14 days. […].

female mice, Balb/c = test: In vivo acute oral toxicity (OECD 423)
Description: as §1, §2

in vitro = type: cell-based; settings: human, human hepatic stellate cells (HSCs), read-out: cell viability (hepatotoxicity, MTT)
Description: Human hepatic stellate cells (HSCs, Sciencell) were grown in the Stellate Cell Medium (Sciencell) supplemented with 2% Foetal Bovine Serum (Sciencell), 1% Stellate Cell Growth Supplement (Sciencell) and 1% penicillin/streptomycin solution (Sciencell). The cells were cultured in the incubator at 37 °C and 5% CO2. To start the experiment, the cells were seeded at a density of 5 × 10^3 cells/well in 96-well plates and incubated (37 °C, 5% CO2) for 24 h. After incubation, medium was removed from the wells and the cells were exposed to 100 µl of the compound over a range of concentrations (from 0.1 to 10 µM) or 100 µl of culture medium alone (blank control). The cells were then further incubated for 24 h. After this time, the medium was removed, the cells were washed with PBS and 50 µl of MTT solution (0.75 mg/ml) was added to each well. The plates were incubated in the dark at 37 °C for another two hours. The MTT solution was then removed from the wells and 100 µl of DMSO was added. The plates were incubated at room temperature for 10 min and then 5 µl of Sorensen Buffer was added to each well. The plates were swayed and the absorbance at 570 nm was measured with a microplate reader (Synergy H1, BioTek, Winooski, VT, USA). The cell viability was expressed as a percentage of the control values (blank control)[40]^,[46]^,[47].

SH-SY5Y cells [4] = test: Neuroprotection against rotenone/oligomycin A, pre-incubation, MTT test; type: cell-based, human; settings: Rotenone/Oligomycin A 30/10 µM
[5] = biological target: T2, BuChE (from equine serum) (Equus caballus, UniProt P81908); test: biochemical
T2 construct: purchased Sigma Aldrich; host or cells: equine serum
T2 sequence (P81908 whole entry): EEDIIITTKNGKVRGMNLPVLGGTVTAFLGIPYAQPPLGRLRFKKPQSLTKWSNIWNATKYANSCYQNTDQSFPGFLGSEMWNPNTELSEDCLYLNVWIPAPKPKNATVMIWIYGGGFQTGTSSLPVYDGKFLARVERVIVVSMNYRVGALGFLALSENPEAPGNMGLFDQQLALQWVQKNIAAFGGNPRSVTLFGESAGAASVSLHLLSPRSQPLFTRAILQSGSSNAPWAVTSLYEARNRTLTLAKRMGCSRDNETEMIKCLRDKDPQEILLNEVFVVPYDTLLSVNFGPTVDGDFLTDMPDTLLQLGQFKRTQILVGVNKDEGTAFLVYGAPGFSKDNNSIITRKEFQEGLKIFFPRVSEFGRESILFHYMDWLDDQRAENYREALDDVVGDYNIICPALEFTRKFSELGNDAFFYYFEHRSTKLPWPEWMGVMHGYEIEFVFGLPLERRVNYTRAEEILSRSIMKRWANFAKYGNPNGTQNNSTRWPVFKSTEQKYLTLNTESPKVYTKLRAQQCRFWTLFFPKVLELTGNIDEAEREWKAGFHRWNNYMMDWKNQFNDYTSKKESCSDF
Description: as §3

Aβ(1–42) aggregation = Aβ(1–42) aggregation (Homo sapiens, UniProt P05067); test: In vitro β-amyloid assay, Thioflavin T fluorescence; type: biochemical; settings: ThT
Chain of Aβ(1–42) aggregation (P05067 672-713 limits assumed): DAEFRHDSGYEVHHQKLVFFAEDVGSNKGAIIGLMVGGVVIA

SH-SY5Y cells [6] = test: Neuroprotection against rotenone/oligomycin A, co-incubation, MTT test; type: cell-based, human; settings: Rotenone/Oligomycin A 30/10 µM
Aβ42 = biological target: T3, Aβ42 (Homo sapiens, UniProt P05067); test: In cellulo β-amyloid assay, Th-S fluorescence in E. coli over-expressing Aβ42; type: cell-based, Escherichia coli; settings: read-out: anti-amyloid (inhibition) capacity for Aβ42
T3 construct: expressed in transfected cells; host or cells: Escherichia coli BL21 (DE3), pET vector
T3 sequence (P05067 672-713): as the sequence (P05067 672-713 limits assumed) above
Description: Inhibition assay in Escherichia coli cells over-expressing amyloid proteins. […] Escherichia coli competent cells BL21 (DE3) were transformed with the required pET vectors carrying the DNA sequence of Aβ42 peptide. Because of the addition of the initiation codon ATG in front of genes, the over-expressed Aβ42 contains an additional methionine residue at their N terminus. For overnight culture preparation, a colony of BL21 (DE3) bearing the plasmid to be expressed was inoculated in 10 ml of M9 minimal medium containing 50 μg/ml of kanamycin at 37 °C. […] The bacterial culture was then grown at 37 °C, with orbital agitation of 250 rpm. When the cell density reached OD600nm–0.6, 980 μL of the culture were transferred into 1.5 ml conical tubes containing 10 μL of the compound to be tested dissolved in DMSO, and 10 μL of 100 mM isopropyl 1-thio-β-D-galactopyranoside (IPTG). The final concentration of the compound was set to 10 μM. The samples were grown overnight at 37 °C under agitation at 1400 rpm, using a Thermomixer (Eppendorf, Hamburg, Germany). […]
The fluorescence normalisation was carried out considering as 100% the Th-S fluorescence of the bacterial cells expressing Aβ42 in the absence of drug, and 0% the Th-S fluorescence of the bacterial cells non-expressing Aβ42 (in absence of the protein production inductor, IPTG). […]

DNA = DNA damage; settings: any tested concentration
[7] = means ± SD of three experiments

T1 sequence (O42275 24-633): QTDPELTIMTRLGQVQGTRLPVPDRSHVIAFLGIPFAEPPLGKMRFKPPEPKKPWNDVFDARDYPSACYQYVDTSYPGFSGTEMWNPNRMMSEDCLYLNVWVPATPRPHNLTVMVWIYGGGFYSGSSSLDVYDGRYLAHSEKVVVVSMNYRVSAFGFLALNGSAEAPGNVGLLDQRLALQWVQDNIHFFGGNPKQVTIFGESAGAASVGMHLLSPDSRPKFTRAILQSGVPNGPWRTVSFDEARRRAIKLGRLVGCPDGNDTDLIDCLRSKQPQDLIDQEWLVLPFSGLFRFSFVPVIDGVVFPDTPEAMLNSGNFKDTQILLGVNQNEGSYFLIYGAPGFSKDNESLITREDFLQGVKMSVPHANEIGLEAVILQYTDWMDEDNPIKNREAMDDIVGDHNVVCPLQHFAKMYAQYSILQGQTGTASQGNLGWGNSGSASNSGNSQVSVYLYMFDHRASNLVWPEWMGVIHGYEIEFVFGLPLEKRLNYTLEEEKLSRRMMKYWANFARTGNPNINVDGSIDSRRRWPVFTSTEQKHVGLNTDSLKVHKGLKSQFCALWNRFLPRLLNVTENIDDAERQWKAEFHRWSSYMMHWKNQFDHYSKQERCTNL

O=C(NCCCCCCNc1c2c(nc3ccccc13)CCC2)c1cc(Cl)cc(Cl)c1 [Compound 3e]
Selectivity for AChE ([1]; IC50(BuChE)/IC50(AChE)): 0.89 | IC50 [1, 7]: 0.131 ± 0.016 µM | toxicity towards SHSY5Y cell (SHSY5Y cell): non-toxic | % neuroprotection (SH-SY5Y cells [2]; compound 0.01 µM): 40.04% | % neuroprotection (SH-SY5Y cells [2]; compound 0.1 µM): 79.34% | % neuroprotection (SH-SY5Y cells [2]; compound 1 µM): 71% | LD50 at 14 days [3]: 1000 mg/kg | mortality (female mice, Balb/c; 300 mg/kg, first and second stages, 3 female Balb/c mice per stage): did not cause any death | mortality (female mice, Balb/c; 2000 mg/kg, stage one, 3 mice): no animal died | mortality (female mice, Balb/c; 2000 mg/kg, stage two, 3 mice): two died | GHS classification (female mice, Balb/c; OECD 423): Category 4 GHS | viability at 24 h, 0.1 µM (in vitro; 0.1 µM): 102% | viability at 24 h, 1 µM (in vitro; 1 µM): 100% | viability at 24 h, 10 µM (in vitro; 10 µM): 97.3% | % neuroprotection (SH-SY5Y cells [4]; compound 0.0001 µM): 17.64% | % neuroprotection (SH-SY5Y cells [4]; compound 0.001 µM): 12.46% | % neuroprotection (SH-SY5Y cells [4]; compound 0.01 µM): 7.65% | % neuroprotection (SH-SY5Y cells [4]; compound 0.1 µM): 2.41% | Selectivity for BuChE ([5]; IC50(AChE)/IC50(BuChE)): 1.13 | IC50 [5, 7]: 0.116 ± 0.006 µM | inhibition at 5 µM (Aβ(1–42) aggregation; 5 µM compound): 55.7 ± 4.7% | inhibition at 10 µM (Aβ(1–42) aggregation; 10 µM compound): 62.7 ± 5.3% | inhibition at 25 µM (Aβ(1–42) aggregation; 25 µM compound): 76.5 ± 3.7% | inhibition at 50 µM (Aβ(1–42) aggregation; 50 µM compound): 79.8 ± 2.9% | inhibition at 100 µM (Aβ(1–42) aggregation; 100 µM compound): 82.6 ± 1.7% | % neuroprotection (SH-SY5Y cells [6]; compound 0.0001 µM): 12.75% | % neuroprotection (SH-SY5Y cells [6]; compound 0.001 µM): 8.67% | % neuroprotection (SH-SY5Y cells [6]; compound 0.01 µM): 2.82% | inhibition at 10 µM (Aβ42): 52.4% | DNA damage (DNA): did not induce DNA damage

Reference: article PMC9848259 (Journal of Enzyme Inhibition and Medicinal Chemistry, 2023)
